Experimental data from ChEMBL document CHEMBL1201862, “PubChem BioAssay data set” (2004).
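Method: 48-hour compound exposure of cells in 96-well plates, five concentrations, linear interpolation of endpoints. GI50 marks 50% less growth.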 The source made the active and inactive calls. Cut-off read from the data, not from the text of the source: active = GI50 up to about 1.1 µM and inactive = higher.

Experiments:
Assay in all cases: DTP human tumour cell line panel, 48 h
[1] = test system: NCI-H522
[2] = test system: HCT-116
[3] = test system: HL-60
[4] = test system: CAKI-1
[5] = test system: NCI-H460
[6] = test system: HT-29
[7] = test system: NCI-H23
[8] = test system: HOP-62
[9] = test system: SK-MEL-28
[10] = test system: KM12
[11] = test system: SR
[12] = test system: HOP-92
[13] = test system: OVCAR-3
[14] = test system: NCI-H226
[15] = test system: HCT-15
[16] = test system: SW-620
[17] = test system: SF-539
[18] = test system: PC-3
[19] = test system: MDA-N
[20] = test system: NCI/ADR-RES

SMILES | GI50 [1] | GI50 [2] | GI50 [3] | GI50 [4] | GI50 [5] | GI50 [6] | GI50 [7] | GI50 [8] | GI50 [9] | GI50 [10] | GI50 [11] | GI50 [12] | GI50 [13] | GI50 [14] | GI50 [15] | GI50 [16] | GI50 [17] | GI50 [18] | GI50 [19] | GI50 [20]
CO[C@H]1CC[C@]2(C)C3=CC[C@@]4(C)C(CC[C@@H]4C(C)CC[C@@H](C)C(C)C)C(=CCC2C1)O3 (stereo partly specified) | > 25 µM (inactive) | > 25 µM (inactive) | > 25 µM (inactive) | 10.2 µM (inactive) | > 25 µM (inactive) | > 25 µM (inactive) | > 7.91 µM (inactive) | > 25 µM (inactive) | > 25 µM (inactive) | > 25 µM (inactive) | > 25 µM (inactive) | > 22.7 µM (inactive) | > 25 µM (inactive) | > 16.5 µM (inactive) | > 25 µM | > 25 µM (inactive) | > 25 µM (inactive) | – | – | –
O=C(c1cc(Cl)ccc1Cl)N1CCN(C(=O)c2cc(Cl)ccc2Cl)CC1 | 34.4 µM (inactive) | > 100 µM (inactive) | > 100 µM (inactive) | 97.9 µM (inactive) | > 100 µM (inactive) | > 100 µM (inactive) | > 100 µM (inactive) | 38.8 µM (inactive) | > 100 µM (inactive) | > 100 µM (inactive) | > 100 µM (inactive) | 67.1 µM (inactive) | > 100 µM (inactive) | > 100 µM (inactive) | > 100 µM | > 100 µM (inactive) | > 100 µM (inactive) | > 100 µM (inactive) | > 100 µM (inactive) | –
Cc1nn(C(=O)Cc2ccccc2)c2c1C(c1ccc(O)cc1)SC(=N)N2 (stereo unspecified) | > 100 µM (inactive) | > 100 µM (inactive) | > 100 µM (inactive) | > 100 µM (inactive) | > 100 µM (inactive) | > 100 µM (inactive) | > 100 µM (inactive) | > 100 µM (inactive) | > 100 µM (inactive) | > 100 µM (inactive) | > 100 µM (inactive) | – | – | > 100 µM (inactive) | > 100 µM | > 100 µM (inactive) | > 100 µM (inactive) | > 100 µM (inactive) | > 100 µM (inactive) | –
O=c1oc(-c2ccccc2)c(-c2ccccc2)n1-c1ccc(Br)cc1 | 17.2 µM (inactive) | 49.7 µM (inactive) | 39.5 µM (inactive) | > 100 µM (inactive) | 62.1 µM (inactive) | > 100 µM (inactive) | 19.8 µM (inactive) | 33.2 µM (inactive) | > 100 µM (inactive) | 37.4 µM (inactive) | – | 35.4 µM (inactive) | 47.5 µM (inactive) | > 100 µM (inactive) | > 100 µM | > 100 µM (inactive) | 20.6 µM (inactive) | > 100 µM (inactive) | – | –
CC(=O)OC[C@@H](OC(C)=O)[C@H](OC(C)=O)[C@@H]1OC(C)(C)O[C@@H]1C1SCCCS1 | > 100 µM (inactive) | > 100 µM (inactive) | – | > 100 µM (inactive) | > 100 µM (inactive) | – | > 100 µM (inactive) | > 100 µM (inactive) | > 100 µM (inactive) | > 100 µM (inactive) | > 100 µM (inactive) | – | > 100 µM (inactive) | – | – | > 100 µM (inactive) | > 100 µM (inactive) | > 100 µM (inactive) | > 100 µM (inactive) | –
O=C1NCN(c2ccccc2)C12CCN(CCc1ccc3[nH]c(=S)[nH]c3c1)CC2 | 43.4 µM (inactive) | 43 µM (inactive) | 29.1 µM (inactive) | > 100 µM (inactive) | 31.8 µM (inactive) | 29.3 µM (inactive) | 65.9 µM (inactive) | > 100 µM (inactive) | 4.12 µM (inactive) | 27.9 µM (inactive) | – | 13.9 µM (inactive) | 48 µM (inactive) | – | > 100 µM | 11.9 µM (inactive) | 22.1 µM (inactive) | 24.3 µM (inactive) | – | > 100 µM (inactive)
NC(Cc1ccc(S(=O)(=O)O)cc1)C(=O)NC(Cc1ccc(S(=O)(=O)O)cc1)C(=O)O (stereo unspecified) | > 100 µM (inactive) | > 100 µM (inactive) | > 100 µM (inactive) | > 100 µM (inactive) | > 100 µM (inactive) | > 100 µM (inactive) | > 100 µM (inactive) | > 100 µM (inactive) | > 100 µM (inactive) | > 100 µM (inactive) | – | – | > 100 µM (inactive) | > 100 µM (inactive) | > 100 µM | > 100 µM (inactive) | > 100 µM (inactive) | > 100 µM (inactive) | > 100 µM (inactive) | > 100 µM (inactive)
N#CC(/C(=N/NC(N)=S)C(=O)Nc1cccc(Cl)c1)c1ccccc1 (stereo unspecified) | > 100 µM (inactive) | > 100 µM (inactive) | > 100 µM (inactive) | > 100 µM (inactive) | > 100 µM (inactive) | > 100 µM (inactive) | > 100 µM (inactive) | > 100 µM (inactive) | > 100 µM (inactive) | > 100 µM (inactive) | > 100 µM (inactive) | > 100 µM (inactive) | > 100 µM (inactive) | > 100 µM (inactive) | > 100 µM | > 100 µM (inactive) | > 100 µM (inactive) | – | – | –
